Assay [1] concerns hepatocyte in primary culture of an adult male Xenopus laevis. It counts as cell-based.
Text: Furthermore, by use of the assay system, the antagonist activity of a target substance could be evaluated.
Assay [2] relates to adult male Xenopus laevis. Description: Exposure in water of adult male Xenopus laevis; vitellogenin quantified by ELISA sandwich method. It is filed as in vivo. The protocol:
Adult male Xenopus laevis of same age (two years and half old) were used. Every five thereof were bred in each of a water bath where one in which in 20 L of dechlorinated tap water E2 dissolved in DMSO was added was filled (experimental group) and a water bath where one in which in 20L of dechlorinated tap water the same amount of DMSO that is a solvent was added is filled (comparative group). Exposure concentrations of the E2 were five levels of 0.1 nM, 1 nM, 10 nM, 100 nM and 1000 nM, and, at 3.5 days during a breeding period of 7 days, the breeding water was once exchanged. A water temperature was set at 22 degrees centigrade, bright and dark periods each were set at 12 hr, and during a test period bait was not fed.
At the detection of the vitellogenin, two samples of a blood serum and a liver homogenate were used and compared to study.
A. Sampling of Blood Serum
1. To an abdominal cavity of a frog, 0.5 to 1.0 ml of an anesthetic agent (20 mg/ml aminobenzoic acid ethyl ester) was injected.
2. An operation was performed, and 0.2 ml of blood was sampled from a pulsating heart with a syringe in a tube and placed on ice.
3. A centrifugal process was applied at 15000 rpm, at 4 degrees centigrade for 10 min, followed by sampling a supernatant.
4. Dilution was applied at a factor of 10 with a 20 mM of an EDTA-0.2 percent Tween 20-PBS solution followed by refrigerating and preserving (in the case of long preservation, by freezing and preserving).
The diluted sample was quantified of the vitellogenin according to the ELISA sandwich method.
1. After the sampling of blood, a liver piece was cut to substantially 0.05 to 0.1 g followed by weighing.
2. In a tube where the liver piece put, 1 ml of 20 mM EDTA-0.5% Tween 20-PBS solution was added.
3. The liver was homogenized over ice.
4. A centrifugal process was applied at 15000 rpm, at 4 degrees centigrade for 10 min, followed by sampling a supernatant, further followed by refrigerating and preserving (in the case of long preservation, by freezing and preserving).
The diluted sample was quantified of the vitellogenin by ELISA sandwich.
(In general: An ELISA detects its analyte on a solid surface through an enzyme-linked reagent.)

The test system of assay [3] is adult male Xenopus laevis. Briefly: Injection method in adult male Xenopus laevis; vitellogenin quantified by ELISA sandwich method. It is filed as in vivo. The protocol: Adult male Xenopus laevis same in the age as A were used. Five thereof in which an E2 solution was injected by means of injection (experimental group) and another five thereof in which propylene glycol that was a solvent was injected by use of an injection by substantially 200 μl (comparative group) were bred in a glass water bath filled with 20 L of dechlorinated tap water. Exposure concentrations of E2 were five levels of 0.002 μg/g BW, 0.02 μg/g BW, 0.2 μg/g BW, 2 μg/g BW and 20 μg/g BW, and, during a breeding period of 7 days, reinjection was once (at 3.5 days) applied. A water temperature was set at 22 degrees centigrade, bright and dark periods each were set at 12 hr, and during a test period bait was not fed. At the injection, individual organisms were measured of weight and substantially 200 μl of the E2 solution was injected so as to be a set concentration. At the detection of the vitellogenin, two samples of a blood serum and a liver homogenate were used and compared to study. A. Sampling of Blood Serum 1. To an abdominal cavity of a frog, 0.5 to 1.0 ml of an anesthetic agent (20 mg/ml aminobenzoic acid ethyl ester) was injected. 2. An operation was performed, and 0.2 ml of blood was sampled from a pulsating heart with a syringe in a tube and placed on ice. 3. […] The diluted sample was quantified of the vitellogenin according to the ELISA sandwich method.

For assay [4], the system named is hepatocyte in primary culture of an adult male Xenopus laevis. Description: VTG synthesis induction in primary hepatocyte culture, VTG in culture liquid by ELISA. It is filed as cell-based. The settings on record: for estrogenic activity detected, equivalent E2 concentration: primary hepatocyte culture. The protocol: • 10×perfusate (0.14% KCl, 5.5% NaCl, 0.44% pyruvate, 1% glucose, 2.38% HEPES, 5% BSA and 0.2% NaHCO3) • Collagenase perfusate (1×perfusate is controlled to pH 7.2 to 7.5 with phenol red to prepare a solution of 0.1% collagenase. Filtration and sterilization) • Culture liquid (50% L-15, 1 μg/ml insulin, 0.5% glucose and antibiotics) B: Sampling Method of Hepatocyte […] A frog is sterilized in potassium permanganate (5 mg/ml) for 2 hr or more (superficial skin color becomes brown). 2. An anesthetic (20 mg/ml-aminobenzoic acid ethylester) is injected by 0.5 to 1.0 ml to an abdominal cavity. 3. A ventral skin is thoroughly sterilized with a cotton bud wetted with alcohol, followed by operating. 4. A heart is exposed, a syringe is inserted from a cardiac chamber, and a collagenase perfusate is sent in through a hepatic vein by use of a […] pump to perfuse a liver. 5. The liver is taken out and transferred in a beaker, followed by cutting small with a pair of scissors. 6. Transferring into an L-tube together with a small amount of collagenase perfusate. 7. Shaking for 30 to 60 min in an incubator at 24 degrees centigrade. 8. Suspending thoroughly with a pipette, followed by filtering through a nylon mesh. 9. A slight amount of culture liquid is added, followed by centrifuging at 300 rpm for 1 to 2 min. […] A centrifugal supernatant is sucked and removed, followed by centrifuging a culture liquid once more (this operation is repeated twice). 11. […] 12. Seeding every 100 to 300 μl to a microplate (substantially 20,000 pieces/well is better). 13. Cultivating in an incubator at 24 degrees centigrade. […] In the case of the E2 processing, it is known that from the third day on after the processing vitellogenin can be detected in the culture liquid; however, since survived hepatocytes in culture are stable for three weeks, for the test of a substance low in the activity, evaluation is carried out for a longer period. As one of applications of the ELISA KIT, an application to the quantification of VTG concentration in a liquid Xenopus laevis hepatocyte culture was studied as well. […] Of a culture liquid after 6 days from the start of culturing (exchanged on the third day), the quantification of the VTG concentration was carried out with the ELISA KIT. By combining the exposure test to hepatocytes in primary culture and the ELISA, an application to a quantitative screening method of the estrogen activity of various chemicals was studied. […] According to a method similar to (Example 2-2), primary cultured hepatocytes of an adult male Xenopus laevis were prepared, followed by culturing in a culture liquid containing one of the chemicals, and with a culture liquid after 6 days, according to the ELISA, a VTG concentration in the culture liquid was quantified.

From patent publication US20050244906A1, “Detection kit, assay plate to be used therein, detection method, evaluation method, polyclonal antibody of frog vitellogenin and process for producing the same” (priority 2002, published 2005) come the findings set out here.

Like-named read-outs stand apart in the source and are kept apart here.

As for `CC(C)(c1ccc(O)cc1)c1ccc(O)cc1` [BPA, bisphenol A], in assay [1] (co-culture with 5 nM E2, increasing concentration of added chemical), the “antagonist activity on VTG synthesis induction due to 5 nM E2” value was “antagonistic activity was exhibited”.

As for `C[C@]12CC[C@@H]3c4ccc(O)cc4CC[C@H]3[C@@H]1CC[C@@H]2O` [E2, 17β-estradiol], in assay [2] (exposure in water for 7 days, adult male, ELISA KIT), the “E2 concentration at which blood plasma VTG / VTG synthesis induction can be detected with the ELISA KIT” value is given as ≥ 1 nM. Further, the “vitellogenin response at 100 nM” value in assay [2] (exposure in water, 7 days, 100 nM) is “obviously rose high”. Further, in assay [2] (exposure in water, 7 days, 1000 nM), the “vitellogenin synthesis at 1000 nM” value is reported as “does not increase”. Also, in assay [2] (exposure in water, 7 days, adult male), the “E2 concentration from which vitellogenin response was observed” value is listed as ≥ 10 nM. For the same compound, in assay [2] (exposure method in water), the “concentration range of abrupt rise of vitellogenin” value lay within 10 to 100 nM. Besides, the “production quantity of the vitellogenin” value was ~13000 μg/ml in assay [2] (exposure method in water, 100 nM) and ~14000 μg/ml in assay [3] (at 73 nM (assumed uniform diffusion in body)). Moreover, the “dose dependence of vitellogenin response” value in assay [3] is given as “increased dependent on an administered amount”. Moreover, the “concentration at which vitellogenin synthesis reaches the maximum” value in assay [4] (cultivated hepatocyte) is on record as “lower than 1000 nM”. In assay [4] (hepatocyte in culture, culture liquid, ELISA), the “exposure concentration giving significant concentration-dependent increase in vitellogenin concentration” value is on record as ≥ 0.6 nM. Moreover, the “estrogenic activity detected, equivalent E2 concentration” value is reported as ~0.1 nM in assay [4] (ELISA KIT) and ~0.03 nM in assay [4] (ELISA with biotinylated antibody).

nonylphenol [NP]: the “antagonist activity on VTG synthesis induction due to 5 nM E2” value in assay [1] is on record as “antagonistic activity was exhibited”.
